This is an account of results in ChEMBL document CHEMBL1149523, “Inhibition of HIV-1 integrase activity by synthetic peptides derived from the HIV-1 HXB2 Pol region of the viral genome” (Bioorg Med Chem Lett, 2006).

In assay [1] the target is T1, Human immunodeficiency virus type 1 integrase (Human immunodeficiency virus 1, UniProt Q7ZJM1, C130S). Kind of assay: Inhibition of HIV1 integrase C130S mutant strand transfer step.
Assay [2] deals with T2, Human immunodeficiency virus type 1 integrase (Human immunodeficiency virus 1, UniProt Q7ZJM1). As to the kind of experiment: Inhibition of wild type HIV1 integrase 3' processing step.
Assay [3] concerns the target T1, Human immunodeficiency virus type 1 integrase. As to the kind of experiment: Inhibition of HIV1 integrase C130S mutant 3' processing step.
For assay [4], the target named is T3, Human immunodeficiency virus type 1 integrase (Human immunodeficiency virus 1, UniProt Q7ZJM1, C130A). As to the kind of experiment: Inhibition of mutant HIV1 integrase C130A mutant 3' processing step.
Assay [5] addresses Human immunodeficiency virus type 1 integrase (Human immunodeficiency virus 1, UniProt Q7ZJM1, C280S/F185K). Kind of assay: Inhibition of soluble HIV1 integrase F185K/C280S mutant strand transfer step.
Assay [6] addresses T3, Human immunodeficiency virus type 1 integrase. Kind of assay: Inhibition of HIV1 integrase C130A mutant strand transfer step.
Assay [7] has as its target Human immunodeficiency virus type 1 integrase (Human immunodeficiency virus 1, UniProt Q7ZJM1, C280S/F182K). As to the kind of experiment: Inhibition of soluble HIV1 integrase F182K/ C280S mutant 3' processing step.
Assay [8] concerns the target T2, Human immunodeficiency virus type 1 integrase. As to the kind of experiment: Inhibition of wild type HIV1 integrase strand transfer step.

Bounds are passed on as bounds.

T3 sequence (Q7ZJM1 entry or part of it C130A): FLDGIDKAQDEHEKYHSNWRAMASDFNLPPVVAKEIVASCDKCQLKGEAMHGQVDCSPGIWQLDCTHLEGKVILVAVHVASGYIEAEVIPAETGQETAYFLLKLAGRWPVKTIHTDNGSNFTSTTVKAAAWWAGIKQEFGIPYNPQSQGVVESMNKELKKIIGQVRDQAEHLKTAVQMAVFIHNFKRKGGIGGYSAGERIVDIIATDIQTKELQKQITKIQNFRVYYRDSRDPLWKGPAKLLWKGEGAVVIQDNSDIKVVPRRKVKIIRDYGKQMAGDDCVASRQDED
T1 sequence (Q7ZJM1 entry or part of it C130S): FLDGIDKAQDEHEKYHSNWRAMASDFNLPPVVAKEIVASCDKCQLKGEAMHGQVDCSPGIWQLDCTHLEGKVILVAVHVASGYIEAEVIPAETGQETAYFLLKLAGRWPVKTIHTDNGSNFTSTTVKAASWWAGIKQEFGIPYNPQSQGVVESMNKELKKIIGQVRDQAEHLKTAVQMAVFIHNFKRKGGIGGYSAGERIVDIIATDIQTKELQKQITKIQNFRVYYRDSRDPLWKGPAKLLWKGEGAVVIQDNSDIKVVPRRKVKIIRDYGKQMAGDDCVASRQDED
Chain of Human immunodeficiency virus type 1 integrase (Human immunodeficiency virus 1, UniProt Q7ZJM1, C280S/F185K) (Q7ZJM1 entry or part of it C280S/F185K): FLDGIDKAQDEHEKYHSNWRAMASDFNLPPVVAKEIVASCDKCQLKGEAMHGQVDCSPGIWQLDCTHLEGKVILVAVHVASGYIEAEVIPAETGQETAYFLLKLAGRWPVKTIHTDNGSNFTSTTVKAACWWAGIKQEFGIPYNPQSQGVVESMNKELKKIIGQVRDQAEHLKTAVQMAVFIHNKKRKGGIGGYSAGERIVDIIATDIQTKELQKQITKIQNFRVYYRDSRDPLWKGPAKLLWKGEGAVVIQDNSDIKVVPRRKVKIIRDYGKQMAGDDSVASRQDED
T2 sequence (Q7ZJM1 whole entry): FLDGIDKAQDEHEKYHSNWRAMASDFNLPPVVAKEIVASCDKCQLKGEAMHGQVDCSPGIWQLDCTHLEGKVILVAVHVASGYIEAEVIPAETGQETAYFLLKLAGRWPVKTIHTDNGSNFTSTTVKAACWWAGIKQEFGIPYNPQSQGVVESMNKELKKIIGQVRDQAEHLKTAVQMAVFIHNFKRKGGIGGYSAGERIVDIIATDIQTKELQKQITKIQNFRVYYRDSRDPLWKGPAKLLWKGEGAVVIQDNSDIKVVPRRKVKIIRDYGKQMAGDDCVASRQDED

As to `CC[C@H](C)[C@H](NC(=O)[C@H](CO)NC(=O)[C@H](CCC(=O)O)NC(=O)[C@@H](NC(=O)[C@@H](NC(=O)[C@@H](NC(=O)[C@H](CCCCN)NC(=O)[C@H](CCC(N)=O)NC(=O)[C@@H](NC(=O)[C@H](C)NC(=O)[C@H](CCC(=O)O)NC(=O)[C@@H](NC(=O)[C@H](CC(C)C)NC(=O)[C@H](CCC(N)=O)NC(=O)[C@@H](N)CCCCN)[C@@H](C)O)C(C)C)[C@@H](C)CC)[C@@H](C)O)[C@@H](C)O)C(=O)N[C@H](C(=O)N[C@H](C(=O)N[C@@H](Cc1c[nH]c2ccccc12)C(=O)NCC(=O)N[C@@H](CCCCN)C(=O)O)[C@@H](C)CC)C(C)C`, the IC50 in assay [1] is 2 µM; in assay [2], 7 µM; in assay [3], 29 µM; in assay [4], 15 µM; in assay [5], 31 µM; in assay [6] it was 10 µM. In addition, the values for the IC50 in assay [7] and in assay [8] were 51 µM and 4 µM, respectively.

Regarding `CC[C@H](C)[C@H](NC(=O)[C@H](CC(C)C)NC(=O)[C@H](CCC(N)=O)NC(=O)[C@H](CCC(=O)O)NC(=O)[C@@H](NC(=O)[C@@H](NC(=O)[C@H](CCC(N)=O)NC(=O)[C@H](CC(N)=O)NC(=O)[C@@H](NC(=O)[C@H](CC(C)C)NC(=O)[C@@H](N)CCC(=O)O)C(C)C)[C@@H](C)CC)[C@@H](C)CC)C(=O)N[C@@H](CCCCN)C(=O)N[C@@H](CCCCN)C(=O)N[C@@H](CCC(=O)O)C(=O)N[C@@H](CCCCN)C(=O)N[C@H](C(=O)N[C@@H](Cc1ccc(O)cc1)C(=O)N[C@@H](CC(C)C)C(=O)N[C@@H](C)C(=O)N[C@@H](Cc1c[nH]c2ccccc12)C(=O)O)C(C)C`, the half-inhibitory concentration (IC50) in assay [1] worked out at 7 µM; in assay [2] it was 15 µM; in assay [3], 136 µM; in assay [4], 45 µM; in assay [5] it was 83 µM; in assay [6] it was 15 µM. Further, the IC50 came to 113 µM in assay [7] and 14 µM in assay [8].

Take `CC[C@H](C)[C@H](NC(=O)[C@H](Cc1c[nH]c2ccccc12)NC(=O)[C@@H](NC(=O)[C@H](C)NC(=O)[C@H](CCC(N)=O)NC(=O)[C@H](Cc1c[nH]c2ccccc12)NC(=O)[C@H](Cc1ccc(O)cc1)NC(=O)[C@H](CCC(=O)O)NC(=O)[C@@H](NC(=O)[C@H](Cc1c[nH]c2ccccc12)NC(=O)[C@H](Cc1c[nH]c2ccccc12)NC(=O)[C@@H](NC(=O)[C@H](CCC(=O)O)NC(=O)[C@H](Cc1c[nH]c2ccccc12)NC(=O)[C@@H](NC(=O)[C@@H](N)CCC(=O)O)[C@@H](C)O)[C@@H](C)O)[C@@H](C)O)[C@@H](C)O)C(=O)N1CCC[C@H]1C(=O)N[C@@H](CCC(=O)O)C(=O)N[C@@H](Cc1c[nH]c2ccccc12)C(=O)N[C@@H](CCC(=O)O)C(=O)O`: the IC50 in assay [1] was 27 µM; in assay [2] it was 6 µM; in assay [3], 126 µM; in assay [4], 25 µM; in assay [5] it was 9 µM; in assay [6] it was 5 µM. Besides, the IC50 in assay [7] is 13 µM; in assay [8] it was 2 µM.

With `CC[C@H](C)C(NC(=O)[C@H](CCC(=O)O)NC(=O)[C@H](CC(C)C)NC(=O)[C@H](CC(=O)O)NC(=O)[C@H](CO)NC(=O)CNC(=O)[C@@H](NC(=O)[C@H](Cc1ccc(O)cc1)NC(=O)[C@H](CC(C)C)NC(=O)[C@H](CC(=O)O)NC(=O)[C@H](CC(=O)O)NC(=O)[C@H](CCSC)NC(=O)[C@H](Cc1ccc(O)cc1)NC(=O)[C@H](CCC(N)=O)NC(=O)[C@H](Cc1ccc(O)cc1)NC(=O)[C@@H](NC(=O)[C@@H](NC(=O)[C@@H](NC(=O)[C@H](CC(=O)O)NC(=O)[C@@H]1CCCN1)[C@@H](C)CC)C(C)C)[C@@H](C)CC)C(C)C)C(=O)O` (stereo not given in full), the IC50 in assay [1] turned out to be 2 µM; in assay [2], 6 µM; in assay [3], 41 µM; in assay [4] it was 20 µM; in assay [5], 23 µM; in assay [6] it was 5 µM. Moreover, the IC50 in assay [7] came out at 28 µM; in assay [8], 10 µM.

Consider `CC[C@H](C)[C@H](NC(=O)CNC(=O)[C@H](CC(C)C)NC(=O)[C@H](C)NC(=O)[C@H](Cc1ccc(O)cc1)NC(=O)[C@H](CCC(N)=O)NC(=O)[C@H](CO)NC(=O)[C@H](CC(=O)O)NC(=O)[C@@H](NC(=O)[C@@H](NC(=O)[C@@H](NC(=O)[C@H](CC(N)=O)NC(=O)[C@@H](NC(=O)[C@H](CCC(=O)O)NC(=O)[C@H](CC(C)C)NC(=O)CNC(=O)[C@H](CO)NC(=O)[C@H](CC(=O)O)NC(=O)[C@H](CCC(N)=O)NC(=O)[C@@H](N)CC(C)C)C(C)C)[C@@H](C)CC)C(C)C)[C@@H](C)O)C(=O)O`, for which the IC50 was 4 µM in assay [1]; 11 µM in assay [2]; 18 µM in assay [3]; greater than 167 µM in assay [4]; 36 µM in assay [5]; 20 µM in assay [6]. The IC50 in assay [7] was greater than 167 µM; in assay [8], 2 µM.

What is called IC50 is the concentration needed to halve the response being measured. Read a low IC50 as higher potency.
